Reference: PMC11676667, “Pharmacokinetics of Oral Cannabinoid Δ8-Tetrahydrocannabivarin and Its Main Metabolites in Healthy Participants” (Pharmaceuticals, 2024)
Where two headings read alike, the source gives them in different places.

Experiments:
[1] = Plasma pharmacokinetics after single oral dose of Δ8-THCV in MCT oil (LC-MS/MS, non-compartmental analysis); format: in vivo, human; conditions: for concentration at 0.5 h / concentration at 1 h / concentration at 2 h / concentration at 4 h / concentration at 6 h / concentration at 8 h / AUC(0-t) / Cmax / MRT / Tmax: human; for concentration at 0.5 h / concentration at 1 h / concentration at 2 h / concentration at 4 h / concentration at 6 h / concentration at 8 h: oral; for AUC(0-t) / Cmax / MRT / Tmax: po; for MRT: read-out: MRT (mean residence time)
Method in brief: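 Healthy participants received single oral Δ8-THCV in MCT oil (50 mg/mL; 12.5-200 mg, or placebo) after a high-fat, high-calorie breakfast, with ≥1-week washout. Plasma (K2EDTA) sampled predose and 0.5-8 h post-dose, assayed by validated LC-MS/MS including metabolites; PK by non-compartmental analysis, sub-LLOQ values set to 0.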

CB2 receptors = system: CB2 receptors; parameters: method as in PMID 21470208; conditions: in vitro; cited from earlier work
[2] = plasma, 100 mg, 100 mg Δ8-THCV dose, Median (IQ Range)
[3] = plasma, 100 mg, 100 mg Δ8-THCV dose, Mean (SD, %CV)
[4] = plasma, 200 mg, 200 mg Δ8-THCV dose, Mean (SD, %CV)
[5] = plasma, 200 mg, 200 mg Δ8-THCV dose, Median (IQ Range)
[6] = plasma, 12.5 mg, 12.5 mg single oral Δ8-THCV in MCT oil, Mean (±SD)
[7] = plasma, 12.5 mg, 12.5 mg single oral Δ8-THCV in MCT oil, Median (Range)
[8] = plasma, 25 mg, 25 mg single oral Δ8-THCV in MCT oil, Mean (±SD)
[9] = plasma, 25 mg, 25 mg single oral Δ8-THCV in MCT oil, Median (Range)
[10] = plasma, 50 mg, 50 mg single oral Δ8-THCV in MCT oil, Mean (±SD)
[11] = plasma, 50 mg, 50 mg single oral Δ8-THCV in MCT oil, Median (Range)
[12] = plasma, 100 mg, 100 mg single oral Δ8-THCV in MCT oil, Mean (±SD)
[13] = plasma, 100 mg, 100 mg single oral Δ8-THCV in MCT oil, Median (Range)
[14] = plasma, 200 mg, 200 mg single oral Δ8-THCV in MCT oil, Mean (±SD)
[15] = plasma, 200 mg, 200 mg single oral Δ8-THCV in MCT oil, Median (Range)

CCCc1cc(O)c2c(c1)OC(C)(C)[C@@H]1CC=C(C)C[C@@H]21 [Δ8-THCV, Δ8-tetrahydrocannabivarin]
concentration at 0.5 h [1, 2]: 0 ng/mL
concentration at 1 h [1, 3]: 4.2 ng/mL
concentration at 1 h [1, 2]: 2.1 ng/mL
concentration at 2 h [1, 3]: 7.1 ng/mL
concentration at 2 h [1, 2]: 5.5 ng/mL
concentration at 4 h [1, 3]: 11.4 ng/mL
concentration at 4 h [1, 2]: 7.3 ng/mL
concentration at 6 h [1, 3]: 12.3 ng/mL
concentration at 6 h [1, 2]: 7.7 ng/mL
concentration at 8 h [1, 3]: 4.1 ng/mL
concentration at 8 h [1, 2]: 3.1 ng/mL
concentration at 0.5 h [1, 4]: 0.1 ng/mL
concentration at 0.5 h [1, 5]: 0 ng/mL
concentration at 1 h [1, 4]: 3.6 ng/mL
concentration at 1 h [1, 5]: 2 ng/mL
concentration at 2 h [1, 4]: 21.4 ng/mL
concentration at 2 h [1, 5]: 14.3 ng/mL
concentration at 4 h [1, 4]: 29.4 ng/mL
concentration at 4 h [1, 5]: 33.3 ng/mL
concentration at 6 h [1, 4]: 26.6 ng/mL
concentration at 6 h [1, 5]: 21.8 ng/mL
concentration at 8 h [1, 4]: 21.2 ng/mL
concentration at 8 h [1, 5]: 13.4 ng/mL
AUC(0-t) [1, 6]: 3.5 ng·h/mL
Cmax [1, 6]: 1.6 ng/mL
AUC(0-t) [1, 7]: 2.1 ng·h/mL
Cmax [1, 7]: 1.1 ng/mL
MRT ([1]; plasma, 12.5 mg, 12.5 mg single oral Δ8-THCV in MCT oil, plasma, Mean (±SD)): 4 h
Tmax ([1]; plasma, 12.5 mg, 12.5 mg single oral Δ8-THCV in MCT oil, plasma, Mean (±SD), read-out: tmax): 3.9 h
MRT ([1]; plasma, 12.5 mg, 12.5 mg single oral Δ8-THCV in MCT oil, plasma, Median (Range)): 4 h
Tmax ([1]; plasma, 12.5 mg, 12.5 mg single oral Δ8-THCV in MCT oil, plasma, Median (Range), read-out: tmax): 4 h
AUC(0-t) [1, 8]: 7.4 ng·h/mL
Cmax [1, 8]: 2.6 ng/mL
AUC(0-t) [1, 9]: 5.2 ng·h/mL
Cmax [1, 9]: 2.1 ng/mL
MRT ([1]; plasma, 25 mg, 25 mg single oral Δ8-THCV in MCT oil, plasma, Mean (±SD)): 4.1 h
Tmax ([1]; plasma, 25 mg, 25 mg single oral Δ8-THCV in MCT oil, plasma, Mean (±SD), read-out: tmax): 3.8 h
MRT ([1]; plasma, 25 mg, 25 mg single oral Δ8-THCV in MCT oil, plasma, Median (Range)): 4.2 h
Tmax ([1]; plasma, 25 mg, 25 mg single oral Δ8-THCV in MCT oil, plasma, Median (Range), read-out: tmax): 4 h
AUC(0-t) [1, 10]: 27.3 ng·h/mL
Cmax [1, 10]: 10 ng/mL
AUC(0-t) [1, 11]: 24.9 ng·h/mL
Cmax [1, 11]: 10 ng/mL
MRT ([1]; plasma, 50 mg, 50 mg single oral Δ8-THCV in MCT oil, plasma, Mean (±SD)): 5.2 h
Tmax ([1]; plasma, 50 mg, 50 mg single oral Δ8-THCV in MCT oil, plasma, Mean (±SD), read-out: tmax): 5 h
MRT ([1]; plasma, 50 mg, 50 mg single oral Δ8-THCV in MCT oil, plasma, Median (Range)): 5.4 h
Tmax ([1]; plasma, 50 mg, 50 mg single oral Δ8-THCV in MCT oil, plasma, Median (Range), read-out: tmax): 6 h
AUC(0-t) [1, 12]: 65.5 ng·h/mL
Cmax [1, 12]: 21.5 ng/mL
AUC(0-t) [1, 13]: 58.4 ng·h/mL
Cmax [1, 13]: 22 ng/mL
MRT ([1]; plasma, 100 mg, 100 mg single oral Δ8-THCV in MCT oil, plasma, Mean (±SD)): 4.5 h
Tmax ([1]; plasma, 100 mg, 100 mg single oral Δ8-THCV in MCT oil, plasma, Mean (±SD), read-out: tmax): 4.2 h
MRT ([1]; plasma, 100 mg, 100 mg single oral Δ8-THCV in MCT oil, plasma, Median (Range)): 4.1 h
Tmax ([1]; plasma, 100 mg, 100 mg single oral Δ8-THCV in MCT oil, plasma, Median (Range), read-out: tmax): 4 h
AUC(0-t) [1, 14]: 168 ng·h/mL
Cmax [1, 14]: 52.9 ng/mL
AUC(0-t) [1, 15]: 165 ng·h/mL
Cmax [1, 15]: 51.7 ng/mL
MRT ([1]; plasma, 200 mg, 200 mg single oral Δ8-THCV in MCT oil, plasma, Mean (±SD)): 4.7 h
Tmax ([1]; plasma, 200 mg, 200 mg single oral Δ8-THCV in MCT oil, plasma, Mean (±SD), read-out: tmax): 4.7 h
MRT ([1]; plasma, 200 mg, 200 mg single oral Δ8-THCV in MCT oil, plasma, Median (Range)): 4.7 h
Tmax ([1]; plasma, 200 mg, 200 mg single oral Δ8-THCV in MCT oil, plasma, Median (Range), read-out: tmax): 4 h
Tmax ([1]; plasma, across oral Δ8-THCV doses 12.5-200 mg, plasma, read-out: median time-to-maximum concentration (tmax), range across doses): 3.8 to 5 h
number of positive plasma samples ([1]; of 504 plasma samples from 15 participants after oral Δ8-THCV): 236
concentration in representative plasma sample ([1]; one subject after oral Δ8-THCV in MCT oil, Figure A1): 69.8 ng/mL
increase of median AUClast every two-fold increase in the dose ([1]; oral Δ8-THCV 12.5-200 mg, plasma): 2.3- to 4.8 fold
tmax later after doses greater than 50 mg compared to the 12.5 mg and 25 mg doses ([1]; oral Δ8-THCV, plasma): 1.3 fold
CB2 receptor activation (CB2 receptors): activate CB2 receptors
